Laboratory results as given in ChEMBL document CHEMBL2073979, “Molecular cloning and characterization of a new multispecific organic anion transporter from rat brain” (J Biol Chem, 1999).

What was measured:
[1] = molecular target: T1, Organic anion transporter 3 (Rattus norvegicus, UniProt Q9R1U7); test: TP_TRANSPORTER: inhibition of E1S uptake (E1S: 40 uM, Cefoperazone: 1000 uM) in Xenopus laevis oocytes; format: functional, cell-based; conditions: oocyte
T1 sequence (Q9R1U7 whole entry): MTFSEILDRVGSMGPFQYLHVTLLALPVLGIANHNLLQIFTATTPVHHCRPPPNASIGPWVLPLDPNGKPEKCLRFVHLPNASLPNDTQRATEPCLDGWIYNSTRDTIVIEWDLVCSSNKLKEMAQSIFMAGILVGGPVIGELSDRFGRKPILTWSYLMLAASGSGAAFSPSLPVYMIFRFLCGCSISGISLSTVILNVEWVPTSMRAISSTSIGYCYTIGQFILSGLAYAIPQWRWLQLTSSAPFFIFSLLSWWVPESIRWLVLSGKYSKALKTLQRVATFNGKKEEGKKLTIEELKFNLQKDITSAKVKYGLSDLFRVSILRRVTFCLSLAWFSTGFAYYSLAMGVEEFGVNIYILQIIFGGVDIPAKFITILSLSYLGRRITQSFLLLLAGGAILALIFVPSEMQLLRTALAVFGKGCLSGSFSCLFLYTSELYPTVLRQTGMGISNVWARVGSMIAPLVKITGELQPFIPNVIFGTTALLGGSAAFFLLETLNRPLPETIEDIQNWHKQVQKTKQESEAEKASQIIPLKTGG

[2] = molecular target: T2, Organic anion transporter 3 (OAT3) (Rattus norvegicus, UniProt Q9R1U7); test: (§1) TP_TRANSPORTER: uptake in Xenopus laevis oocytes; format: functional, cell-based, Oocyte
T2 sequence (Q9R1U7 whole entry): T1 sequence (Q9R1U7 whole entry)

[3] = molecular target: T1, Organic anion transporter 3; test: TP_TRANSPORTER: inhibition of E1S uptake (E1S: 40 uM, BSP: 1000 uM) in Xenopus laevis oocytes; format: functional, cell-based; conditions: oocyte
[4] = molecular target: T1, Organic anion transporter 3; test: TP_TRANSPORTER: inhibition of E1S uptake (E1S: 40 uM, MTX: 1000 uM) in Xenopus laevis oocytes; format: functional, cell-based; conditions: oocyte
[5] = molecular target: T1, Organic anion transporter 3; test: TP_TRANSPORTER: inhibition of E1S uptake (E1S: 40 uM, Malatonin: 1000 uM) in Xenopus laevis oocytes; format: functional, cell-based; conditions: oocyte
[6] = molecular target: T1, Organic anion transporter 3; test: TP_TRANSPORTER: inhibition of E1S uptake (E1S: 40 uM, Probenecid: 1000 uM) in Xenopus laevis oocytes; format: functional, cell-based; conditions: oocyte
[7] = molecular target: T1, Organic anion transporter 3; test: TP_TRANSPORTER: inhibition of E1S uptake (E1S: 40 uM, Bumetanide: 1000 uM) in Xenopus laevis oocytes; format: functional, cell-based; conditions: oocyte
[8] = molecular target: T1, Organic anion transporter 3; test: TP_TRANSPORTER: inhibition of E1S uptake (E1S: 40 uM, ICG: 1000 uM) in Xenopus laevis oocytes; format: functional, cell-based; conditions: oocyte
[9] = molecular target: T1, Organic anion transporter 3; test: TP_TRANSPORTER: inhibition of E1S uptake (E1S: 40 uM, DIDS: 1000 uM) in Xenopus laevis oocytes; format: functional, cell-based; conditions: oocyte
[10] = molecular target: T1, Organic anion transporter 3; test: as §1; format: functional, cell-based, Oocyte; conditions: oocyte
[11] = molecular target: T1, Organic anion transporter 3; test: TP_TRANSPORTER: inhibition of E1S uptake (E1S: 40 uM, Furosemide: 1000 uM) in Xenopus laevis oocytes; format: functional, cell-based; conditions: oocyte
[12] = molecular target: T1, Organic anion transporter 3; test: TP_TRANSPORTER: inhibition of E1S uptake (E1S: 40 uM, AZT: 1000 uM) in Xenopus laevis oocytes; format: functional, cell-based; conditions: oocyte
[13] = molecular target: T1, Organic anion transporter 3; test: TP_TRANSPORTER: inhibition of E1S uptake (E1S: 40 uM, Indomethacin: 1000 uM) in Xenopus laevis oocytes; format: functional, cell-based; conditions: oocyte
[14] = molecular target: T1, Organic anion transporter 3; test: TP_TRANSPORTER: inhibition of E1S uptake (E1S: 40 uM, Piroxicam: 1000 uM) in Xenopus laevis oocytes; format: functional, cell-based; conditions: oocyte
[15] = molecular target: T1, Organic anion transporter 3; test: TP_TRANSPORTER: inhibition of E1S uptake (E1S: 40 uM, Ouabain: 1000 uM) in Xenopus laevis oocytes; format: functional, cell-based; conditions: oocyte
[16] = substrate: Nc1ccc(C(=O)NCC(=O)O)cc1; test: as §1; format: functional, cell-based, Oocyte
[17] = substrate: C[C@]12CC[C@@H]3c4ccc(OS(=O)(=O)O)cc4CC[C@H]3[C@@H]1CCC2=O; test: as §1; format: functional, cell-based, Oocyte

Molecule: CCN1CCN(C(=O)N[C@@H](C(=O)N[C@@H]2C(=O)N3C(C(=O)O)=C(CSc4nnnn4C)CS[C@H]23)c2ccc(O)cc2)C(=O)C1=O [CEFOPERAZONE]
- Activity [1]: inhibitor [(at a rough estimate) 40 % of control]

Molecule: C[C@@H]1Cc2c(Cl)cc(C(=O)N[C@@H](Cc3ccccc3)C(=O)O)c(O)c2C(=O)O1 [3R14S-OCHRATOXIN A]
- Km [2]: 0.739 µM

Molecule: O=C1OC(c2ccc(O)c(S(=O)(=O)[O-])c2)(c2ccc(O)c(S(=O)(=O)[O-])c2)c2c(Br)c(Br)c(Br)c(Br)c21.[Na+].[Na+] [SULFOBROMOPHTHALEIN SODIUM]
- Activity [3]: inhibitor [(at a rough estimate) 5 % of control]

Molecule: CN(Cc1cnc2nc(N)nc(N)c2n1)c1ccc(C(=O)N[C@@H](CCC(=O)O)C(=O)O)cc1 [METHOTREXATE]
- Activity [4]: inhibitor [(at a rough estimate) 35 % of control]

Molecule: COc1ccc2[nH]cc(CCNC(C)=O)c2c1 [MELATONIN]
- Activity [5]: inhibitor [(at a rough estimate) 10 % of control]

Molecule: CCCN(CCC)S(=O)(=O)c1ccc(C(=O)O)cc1 [PROBENECID]
- Activity [6]: inhibitor [(at a rough estimate) 15 % of control]

Molecule: CCCCNc1cc(C(=O)O)cc(S(N)(=O)=O)c1Oc1ccccc1 [BUMETANIDE]
- Activity [7]: inhibitor [(at a rough estimate) 20 % of control]

Molecule: CC1(C)C(/C=C/C=C/C=C/C=C2/N(CCCCS(=O)(=O)[O-])c3ccc4ccccc4c3C2(C)C)=[N+](CCCCS(=O)(=O)[O-])c2ccc3ccccc3c21.[Na+] [INDOCYANINE GREEN]
- Activity [8]: inhibitor [(at a rough estimate) 20 % of control]

Molecule: O=S(=O)(O)c1cc(N=C=S)ccc1/C=C/c1ccc(NC=S)cc1S(=O)(=O)O
- Activity [9]: inhibitor [(at a rough estimate) 10 % of control]

Molecule: CN/C(=N/CCSCc1nc[nH]c1C)NC#N [CIMETIDINE]
- Activity [10]: substrate [+]

Molecule: NS(=O)(=O)c1cc(C(=O)O)c(NCc2ccco2)cc1Cl [FUROSEMIDE]
- Activity [11]: inhibitor [(at a rough estimate) 10 % of control]

Molecule: Cc1cn([C@H]2C[C@H](N=[N+]=[N-])[C@@H](CO)O2)c(=O)[nH]c1=O [ZIDOVUDINE]
- Activity [12]: inhibitor [(at a rough estimate) 20 % of control]

Molecule: COc1ccc2c(c1)c(CC(=O)O)c(C)n2C(=O)c1ccc(Cl)cc1 [INDOMETHACIN]
- Activity [13]: is not an inhibitor [-]

Molecule: CN1C(C(=O)Nc2ccccn2)=C(O)c2ccccc2S1(=O)=O [PIROXICAM]
- Activity [14]: inhibitor [(at a rough estimate) 10 % of control]

Molecule: C[C@@H]1O[C@@H](O[C@H]2C[C@@H](O)[C@]3(CO)[C@H]4[C@H](O)C[C@]5(C)[C@@H](C6=CC(=O)OC6)CC[C@]5(O)[C@@H]4CC[C@]3(O)C2)[C@H](O)[C@H](O)[C@H]1O [OUABAIN]
- Activity [15]: is not an inhibitor [-]

B1: Organic anion transporter 3 (Rattus norvegicus) (protein)
chain: T1 sequence (Q9R1U7 whole entry)
- Km [16]: 64.7 µM
- Km [17]: 2.34 µM
